Laboratory results from PMC3953502 (ACS chemical biology, 2013).

Legend:
[1] = target: T1, ML-IAP (Homo sapiens, UniProt Q96CA5); experiment: Fluorescence polarization competition assay, ML-IAP BIR; type: binding
T1 sequence (Q96CA5 63-179 limits assumed): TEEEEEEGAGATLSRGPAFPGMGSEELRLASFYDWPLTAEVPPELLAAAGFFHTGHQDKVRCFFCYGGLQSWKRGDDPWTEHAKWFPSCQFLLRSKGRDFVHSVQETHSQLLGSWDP

[2] = tested on: Ovarian Cancer Cells; conditions: 50 ng/mL TRAIL; cited from earlier work
[3] = tested on: MDA-MB-231 breast adenocarcinoma cells; experiment: MDA-MB-231 cell viability, sensitization to TRAIL; type: cell-based; conditions: MDA-MB-231 cells, TRAIL alone at maximum dose of 100 ng/mL

## CN[C@@H](C)C(=O)N[C@H](C(=O)N1CCC[C@H]1C(=O)Nc1snnc1-c1ccccc1)C1CCCCC1 [GDC-0152]
[1]
  Ki: 41 nM

## CN[C@@H](C)C(=O)N[C@H](C(=O)N1CC[C@H]2CCN(CCc3ccccc3)C[C@H]21)C1CCCCC1 [LBW242]
[2]
  increase in LBW242-induced cell death with addition of TRAIL: 2- to 3 fold

B1: TRAIL: Tumor necrosis factor-related apoptosis-inducing ligand, member of the TNF family of cytokines (protein, UniProt P50591 1-281, looked up)
Tumor necrosis factor ligand …: MAMMEVQGGPSLGQTCVLIVIFTVLLQSLCVAVTYVYFTNELKQMQDKYSKSGIACFLKEDDSYWDPNDEESMNSPCWQVKWQLRQLVRKMILRTSEETISTVQEKQQNISPLVRERGPQRVAAHITGTRGRSNTLSSPNSKNEKALGRKINSWESSRSGHSFLSNLHLRNGELVIHEKGFYYIYSQTYFRFQEEIKENTKNDKQMVQYIYKYTSYPDPILLMKSARNSCWSKDAEYGLYSIYQGGIFELKENDRIFVSVTNEHLIDMDHEASFFGAFLVG
[3]
  cells undergone cell death: 30%
